Data taken from patent publication US12522583B2, “Benzimidazole derivatives and aza-benzimidazole derivatives as Janus kinase 2 inhibitors and uses thereof” (Dana-Farber Cancer Institute, Inc., priority 2018, dated 2026).

Tests used:
Test in all cases: KINOMEscan
Type in all cases: binding
Details in all cases: read-out: percent control
[1] = target: RSK2(Kin.Dom.2-C-terminal) (Homo sapiens (Human), UniProt P51812)
From the text: (§1) Example 2. In Vitro Kinase Selectivity Profiling of the Compounds of the Present Disclosure

[2] = target: DCAMKL1 (Homo sapiens (Human), UniProt O15075)
From the text: as §1

[3] = target: TRKA (Homo sapiens (Human), UniProt P04629)
From the text: as §1

[4] = target: PRKX (Homo sapiens (Human), UniProt P51817)
From the text: as §1

[5] = target: SRPK3 (Homo sapiens (Human), UniProt Q9UPE1)
From the text: as §1

[6] = target: MAP3K1 (Homo sapiens (Human), UniProt Q13233)
From the text: as §1

[7] = target: MAP3K15 (Homo sapiens (Human), UniProt Q6ZN16)
From the text: as §1

[8] = target: PRKD1 (Homo sapiens (Human), UniProt Q15139)
From the text: as §1

[9] = target: CLK1 (Homo sapiens (Human), UniProt P49759)
From the text: as §1

[10] = target: MUSK (Homo sapiens (Human), UniProt O15146)
From the text: as §1

[11] = target: BLK (Homo sapiens (Human), UniProt P51451)
From the text: as §1

[12] = target: ACVRL1 (Homo sapiens (Human), UniProt P37023)
From the text: as §1

[13] = target: NIM1 (Homo sapiens (Human), UniProt Q8IY84)
From the text: as §1

[14] = target: MEK2 (Homo sapiens (Human), UniProt P36507)
From the text: as §1

[15] = target: TAK1 (Homo sapiens (Human), UniProt O43318)
From the text: as §1

[16] = target: MARK3 (Homo sapiens (Human), UniProt P27448)
From the text: as §1

[17] = target: STK35 (Homo sapiens (Human), UniProt Q8TDR2)
From the text: as §1

[18] = target: ADCK4 (Homo sapiens (Human), UniProt Q96D53)
From the text: as §1

[19] = target: MAP3K4 (Homo sapiens (Human), UniProt Q9Y6R4)
From the text: as §1

[20] = target: YES (Homo sapiens (Human), UniProt P07947)
From the text: as §1

[21] = target: JAK1(JH2domain-pseudokinase) (Homo sapiens (Human), UniProt P23458)
From the text: as §1

[22] = target: FLT3 (Homo sapiens (Human), UniProt P36888)
From the text: as §1

[23] = target: INSR (Homo sapiens (Human), UniProt P06213)
From the text: as §1

[24] = target: EPHA1 (Homo sapiens (Human), UniProt P21709)
From the text: as §1

[25] = target: JAK3(JH1domain-catalytic) (Homo sapiens (Human), UniProt P52333)
From the text: as §1

[26] = target: TNK2 (Homo sapiens (Human), UniProt Q07912)
From the text: as §1

[27] = target: SBK1 (Homo sapiens (Human), UniProt Q52WX2)
From the text: as §1

[28] = target: PIM2 (Homo sapiens (Human), UniProt Q9P1W9)
From the text: as §1

[29] = target: TAOK3 (Homo sapiens (Human), UniProt Q9H2K8)
From the text: as §1

[30] = target: ANKK1 (Homo sapiens (Human), UniProt Q8NFD2)
From the text: as §1

[31] = target: PIK3CB (Homo sapiens (Human), UniProt P42338)
From the text: as §1

[32] = target: ABL2 (Homo sapiens (Human), UniProt P42684)
From the text: as §1

[33] = target: CAMK2B (Homo sapiens (Human), UniProt Q13554)
From the text: as §1

[34] = target: PDGFRA (Homo sapiens (Human), UniProt P16234)
From the text: as §1

[35] = target: RSK2(Kin.Dom.1-N-terminal) (Homo sapiens (Human), UniProt P51812)
From the text: as §1

[36] = target: PKAC-alpha (Homo sapiens (Human), UniProt P17612)
From the text: as §1

[37] = target: ERN1 (Homo sapiens (Human), UniProt O75460)
From the text: as §1

[38] = target: AURKA (Homo sapiens (Human), UniProt O14965)
From the text: as §1

[39] = target: DYRK1A (Homo sapiens (Human), UniProt Q13627)
From the text: as §1

[40] = target: MRCKB (Homo sapiens (Human), UniProt Q9Y5S2)
From the text: as §1

[41] = target: SYK (Homo sapiens (Human), UniProt P43405)
From the text: as §1

Sequence of MARK3 (P27448 whole entry): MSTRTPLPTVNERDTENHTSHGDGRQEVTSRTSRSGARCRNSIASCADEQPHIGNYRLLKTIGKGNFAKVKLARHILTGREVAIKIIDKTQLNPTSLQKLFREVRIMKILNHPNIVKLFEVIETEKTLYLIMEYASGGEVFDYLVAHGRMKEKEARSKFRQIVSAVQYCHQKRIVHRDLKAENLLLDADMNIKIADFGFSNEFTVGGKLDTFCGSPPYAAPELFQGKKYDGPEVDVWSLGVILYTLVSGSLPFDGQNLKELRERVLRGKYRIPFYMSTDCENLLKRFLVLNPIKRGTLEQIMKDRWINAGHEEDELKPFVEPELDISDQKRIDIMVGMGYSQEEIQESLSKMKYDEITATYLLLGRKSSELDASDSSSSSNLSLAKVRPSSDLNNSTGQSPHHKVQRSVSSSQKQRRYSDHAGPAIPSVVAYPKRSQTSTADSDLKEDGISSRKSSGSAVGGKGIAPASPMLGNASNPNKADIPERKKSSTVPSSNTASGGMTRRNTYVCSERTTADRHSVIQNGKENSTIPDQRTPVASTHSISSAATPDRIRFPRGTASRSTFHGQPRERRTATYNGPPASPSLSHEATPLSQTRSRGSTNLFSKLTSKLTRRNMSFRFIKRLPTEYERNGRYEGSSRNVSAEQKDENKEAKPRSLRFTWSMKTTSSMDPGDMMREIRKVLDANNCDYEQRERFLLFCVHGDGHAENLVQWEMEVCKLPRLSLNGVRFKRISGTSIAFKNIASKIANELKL
Sequence of ERN1 (O75460 19-977): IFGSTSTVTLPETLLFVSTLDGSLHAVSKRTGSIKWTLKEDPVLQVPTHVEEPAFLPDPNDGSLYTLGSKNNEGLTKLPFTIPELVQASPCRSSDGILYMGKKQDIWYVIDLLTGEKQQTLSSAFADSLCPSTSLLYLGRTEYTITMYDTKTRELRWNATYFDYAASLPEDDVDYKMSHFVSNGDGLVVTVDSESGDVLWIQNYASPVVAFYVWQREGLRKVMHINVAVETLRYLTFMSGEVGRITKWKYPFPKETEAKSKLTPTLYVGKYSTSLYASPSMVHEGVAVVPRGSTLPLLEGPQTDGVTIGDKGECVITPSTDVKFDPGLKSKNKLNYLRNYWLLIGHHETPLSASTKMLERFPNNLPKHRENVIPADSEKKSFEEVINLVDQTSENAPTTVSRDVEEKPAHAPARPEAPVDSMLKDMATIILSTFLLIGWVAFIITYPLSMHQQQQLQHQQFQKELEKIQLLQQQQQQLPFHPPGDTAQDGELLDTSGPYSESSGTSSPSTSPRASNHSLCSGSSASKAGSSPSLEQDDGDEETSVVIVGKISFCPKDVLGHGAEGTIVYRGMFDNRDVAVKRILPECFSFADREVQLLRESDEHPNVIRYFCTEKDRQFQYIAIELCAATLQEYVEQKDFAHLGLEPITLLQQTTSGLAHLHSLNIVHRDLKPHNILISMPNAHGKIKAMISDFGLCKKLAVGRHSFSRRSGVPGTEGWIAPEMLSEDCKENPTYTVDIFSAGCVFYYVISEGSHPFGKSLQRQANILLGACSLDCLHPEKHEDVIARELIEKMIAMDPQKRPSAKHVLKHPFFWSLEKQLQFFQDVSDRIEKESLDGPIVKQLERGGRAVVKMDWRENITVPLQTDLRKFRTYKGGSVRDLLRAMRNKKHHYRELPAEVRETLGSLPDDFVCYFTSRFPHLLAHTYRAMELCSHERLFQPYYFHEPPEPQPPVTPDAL
Sequence of MUSK (O15146 24-869): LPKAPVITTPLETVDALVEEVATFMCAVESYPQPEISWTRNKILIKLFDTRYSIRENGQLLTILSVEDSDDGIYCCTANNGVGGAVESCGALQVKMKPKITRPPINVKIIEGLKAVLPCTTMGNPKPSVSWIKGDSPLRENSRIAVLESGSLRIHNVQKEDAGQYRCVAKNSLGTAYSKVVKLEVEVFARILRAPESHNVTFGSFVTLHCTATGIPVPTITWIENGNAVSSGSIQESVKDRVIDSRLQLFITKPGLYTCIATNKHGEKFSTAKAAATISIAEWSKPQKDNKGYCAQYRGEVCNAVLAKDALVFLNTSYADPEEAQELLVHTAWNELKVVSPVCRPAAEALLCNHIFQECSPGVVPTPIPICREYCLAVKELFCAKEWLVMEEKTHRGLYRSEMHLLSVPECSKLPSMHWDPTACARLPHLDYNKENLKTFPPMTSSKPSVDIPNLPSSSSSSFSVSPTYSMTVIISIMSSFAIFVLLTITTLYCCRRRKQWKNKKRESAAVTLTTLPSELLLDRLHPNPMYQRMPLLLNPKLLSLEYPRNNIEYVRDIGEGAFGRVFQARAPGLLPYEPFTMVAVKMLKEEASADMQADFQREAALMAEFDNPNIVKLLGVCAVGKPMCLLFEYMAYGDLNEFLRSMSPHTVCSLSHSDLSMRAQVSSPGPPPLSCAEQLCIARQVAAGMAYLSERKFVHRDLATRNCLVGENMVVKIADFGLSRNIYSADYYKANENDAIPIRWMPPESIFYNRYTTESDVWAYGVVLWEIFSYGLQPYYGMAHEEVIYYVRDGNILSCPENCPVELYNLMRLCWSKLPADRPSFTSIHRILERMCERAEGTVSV
Sequence of STK35 (Q8TDR2 whole entry): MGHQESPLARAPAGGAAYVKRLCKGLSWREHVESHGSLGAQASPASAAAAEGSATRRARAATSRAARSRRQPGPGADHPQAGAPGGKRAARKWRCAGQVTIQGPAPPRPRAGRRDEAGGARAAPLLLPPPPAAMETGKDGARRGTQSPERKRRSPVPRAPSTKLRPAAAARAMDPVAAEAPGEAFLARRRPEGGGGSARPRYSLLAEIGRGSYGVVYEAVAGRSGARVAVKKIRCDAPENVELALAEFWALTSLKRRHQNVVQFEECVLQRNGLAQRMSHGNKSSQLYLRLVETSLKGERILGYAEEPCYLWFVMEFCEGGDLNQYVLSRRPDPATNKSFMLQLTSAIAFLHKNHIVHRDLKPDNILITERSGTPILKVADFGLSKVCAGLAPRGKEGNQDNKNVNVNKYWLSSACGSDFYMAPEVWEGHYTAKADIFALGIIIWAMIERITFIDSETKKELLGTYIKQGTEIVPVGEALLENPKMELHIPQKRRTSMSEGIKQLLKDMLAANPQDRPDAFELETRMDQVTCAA
Sequence of DCAMKL1 (O15075 whole entry, looked up): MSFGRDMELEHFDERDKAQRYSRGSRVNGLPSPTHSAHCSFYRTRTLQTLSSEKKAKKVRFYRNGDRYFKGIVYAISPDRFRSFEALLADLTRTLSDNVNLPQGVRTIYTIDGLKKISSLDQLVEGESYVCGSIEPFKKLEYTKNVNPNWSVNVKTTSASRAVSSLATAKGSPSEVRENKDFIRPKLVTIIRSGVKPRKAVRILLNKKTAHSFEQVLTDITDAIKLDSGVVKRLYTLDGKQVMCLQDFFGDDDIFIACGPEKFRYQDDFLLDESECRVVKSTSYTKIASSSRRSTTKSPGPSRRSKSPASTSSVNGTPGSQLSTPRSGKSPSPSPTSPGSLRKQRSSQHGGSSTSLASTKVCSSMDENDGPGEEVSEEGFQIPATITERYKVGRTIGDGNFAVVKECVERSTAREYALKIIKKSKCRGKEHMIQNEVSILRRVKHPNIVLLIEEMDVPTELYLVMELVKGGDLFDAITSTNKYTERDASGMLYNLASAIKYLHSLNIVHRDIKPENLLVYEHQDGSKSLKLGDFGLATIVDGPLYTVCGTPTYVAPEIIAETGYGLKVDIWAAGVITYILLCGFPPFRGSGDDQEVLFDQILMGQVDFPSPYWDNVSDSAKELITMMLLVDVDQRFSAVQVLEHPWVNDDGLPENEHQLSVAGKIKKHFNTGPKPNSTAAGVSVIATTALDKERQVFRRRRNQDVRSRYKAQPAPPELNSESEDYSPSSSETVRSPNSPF
Sequence of NIM1 (Q8IY84 whole entry): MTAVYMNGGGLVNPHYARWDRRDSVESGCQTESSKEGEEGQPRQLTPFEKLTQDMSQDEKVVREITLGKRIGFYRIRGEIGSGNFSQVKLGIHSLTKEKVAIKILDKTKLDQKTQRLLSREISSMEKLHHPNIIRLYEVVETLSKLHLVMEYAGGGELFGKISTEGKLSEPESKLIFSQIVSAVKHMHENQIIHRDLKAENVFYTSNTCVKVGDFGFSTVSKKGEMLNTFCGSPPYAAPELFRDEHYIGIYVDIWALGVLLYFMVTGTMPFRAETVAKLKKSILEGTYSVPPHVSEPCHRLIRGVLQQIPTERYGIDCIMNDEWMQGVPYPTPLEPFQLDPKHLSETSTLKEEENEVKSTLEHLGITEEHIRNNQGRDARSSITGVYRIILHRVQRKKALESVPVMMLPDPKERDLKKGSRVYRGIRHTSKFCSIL
Sequence of RSK2(Kin.Dom.2-C-terminal) (P51812 422-679 limits assumed): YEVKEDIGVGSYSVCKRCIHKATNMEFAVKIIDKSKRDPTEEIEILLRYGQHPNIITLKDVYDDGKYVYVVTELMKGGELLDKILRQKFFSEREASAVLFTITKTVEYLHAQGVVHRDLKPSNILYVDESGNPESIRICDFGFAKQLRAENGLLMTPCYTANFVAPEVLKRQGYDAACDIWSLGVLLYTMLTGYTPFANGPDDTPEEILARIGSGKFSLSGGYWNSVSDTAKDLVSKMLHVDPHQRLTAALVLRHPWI
Sequence of PRKX (P51817 whole entry): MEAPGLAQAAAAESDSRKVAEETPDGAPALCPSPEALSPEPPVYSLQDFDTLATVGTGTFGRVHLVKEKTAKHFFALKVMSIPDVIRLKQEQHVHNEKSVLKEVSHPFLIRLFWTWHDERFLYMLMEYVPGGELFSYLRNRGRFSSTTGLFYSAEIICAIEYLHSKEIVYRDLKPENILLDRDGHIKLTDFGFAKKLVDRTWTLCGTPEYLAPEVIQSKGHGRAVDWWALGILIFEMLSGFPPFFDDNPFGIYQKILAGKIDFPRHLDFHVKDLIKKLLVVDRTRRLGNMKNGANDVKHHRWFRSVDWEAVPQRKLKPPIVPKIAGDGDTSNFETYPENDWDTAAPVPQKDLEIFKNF

CCN1CCN(Cc2ccc(Nc3nc4ccc(Oc5ccnc(NC(C)=O)c5)cc4n3C)cc2C(F)(F)F)CC1 [Compound I-2]
remaining binding at 1 µM [1]: 98%
remaining binding at 1 µM [2]: 91%
remaining binding at 1 µM [3]: 31%
remaining binding at 1 µM [4]: 100%
remaining binding at 1 µM [5]: 100%
remaining binding at 1 µM [6]: 77%
remaining binding at 1 µM [7]: 88%
remaining binding at 1 µM [8]: 99%
remaining binding at 1 µM [9]: 87%
remaining binding at 1 µM [10]: 100%
remaining binding at 1 µM [11]: 49%
remaining binding at 1 µM [12]: 85%
remaining binding at 1 µM [13]: 97%
remaining binding at 1 µM [14]: 77%
remaining binding at 1 µM [15]: 28%
remaining binding at 1 µM [16]: 87%
remaining binding at 1 µM [17]: 100%
remaining binding at 1 µM [18]: 84%
remaining binding at 1 µM [19]: 100%
remaining binding at 1 µM [20]: 82%
remaining binding at 1 µM [21]: 97%
remaining binding at 1 µM [22]: 15%
remaining binding at 1 µM [23]: 20%
remaining binding at 1 µM [24]: 100%
remaining binding at 1 µM [25]: 84%
remaining binding at 1 µM [26]: 94%
remaining binding at 1 µM [27]: 84%
remaining binding at 1 µM [28]: 91%
remaining binding at 1 µM [29]: 41%
remaining binding at 1 µM [30]: 100%
remaining binding at 1 µM [31]: 100%
remaining binding at 1 µM [32]: 32%
remaining binding at 1 µM [33]: 92%
remaining binding at 1 µM [34]: 3.8%
remaining binding at 1 µM [35]: 95%
remaining binding at 1 µM [36]: 65%
remaining binding at 1 µM [37]: 91%
remaining binding at 1 µM [38]: 69%
remaining binding at 1 µM [39]: 92%
remaining binding at 1 µM [40]: 100%
remaining binding at 1 µM [41]: 85%

CCN1CCN(Cc2ccc(Nc3nc4ccc(Oc5ccnc(NC(C)=O)c5)c(C)c4n3C)cc2C(F)(F)F)CC1 [Compound I-6, N-(4-(2-(4-((4-ethylpiperazin-1-yl)methyl)-3-(trifluoromethyl)phenylamino)-1,7-dimethyl-1H-benzo[d]imidazol-6-yloxy)pyridin-2-yl)acetamide]
remaining binding at 1 µM [1]: 99%
remaining binding at 1 µM [2]: 69%
remaining binding at 1 µM [3]: 3.5%
remaining binding at 1 µM [4]: 100%
remaining binding at 1 µM [5]: 87%
remaining binding at 1 µM [6]: 86%
remaining binding at 1 µM [7]: 60%
remaining binding at 1 µM [8]: 95%
remaining binding at 1 µM [9]: 94%
remaining binding at 1 µM [10]: 72%
remaining binding at 1 µM [11]: 17%
remaining binding at 1 µM [12]: 93%
remaining binding at 1 µM [13]: 93%
remaining binding at 1 µM [14]: 100%
remaining binding at 1 µM [15]: 10%
remaining binding at 1 µM [16]: 86%
remaining binding at 1 µM [17]: 100%
remaining binding at 1 µM [18]: 78%
remaining binding at 1 µM [19]: 60%
remaining binding at 1 µM [20]: 84%
remaining binding at 1 µM [21]: 82%
remaining binding at 1 µM [22]: 1%
remaining binding at 1 µM [23]: 12%
remaining binding at 1 µM [24]: 46%
remaining binding at 1 µM [25]: 72%
remaining binding at 1 µM [26]: 100%
remaining binding at 1 µM [27]: 89%
remaining binding at 1 µM [28]: 92%
remaining binding at 1 µM [29]: 13%
remaining binding at 1 µM [30]: 100%
remaining binding at 1 µM [31]: 96%
remaining binding at 1 µM [32]: 5.3%
remaining binding at 1 µM [33]: 94%
remaining binding at 1 µM [34]: 4.2%
remaining binding at 1 µM [35]: 83%
remaining binding at 1 µM [36]: 57%
remaining binding at 1 µM [37]: 97%
remaining binding at 1 µM [38]: 98%
remaining binding at 1 µM [39]: 100%
remaining binding at 1 µM [40]: 100%
remaining binding at 1 µM [41]: 92%
